Source: US20220235043A1, “SUBSTITUTED SULFONAMIDE PYRROLOPYRIDINES AS JAK INHIBITORS” (ACLARIS THERAPEUTICS, INC., priority 2019, published 2022)

Key:
[1] = GI Exposure PK in Mice; format: in vivo; conditions: mouse, male BalbC mice, oral dose of 5 mg/kg
Method: The test compound, Example 75, was wetted with ˜0.025% of Tween-20 and triturated in a mortar and pestle, then slowly 0.5% of methyl cellulose was added to make up the final volume to 7.25 mL. The BalbC test animals were subjected to anesthesia induced with a mixture of 5% isoflurane and 0.8-1.5 L/min O2 gas flow. The formulated test compound was then dosed via oral gavage. At various time points (0.5, 1, 2, 4, 6 and 8 h) blood samples (˜100 μL) were collected from portal vein (pre-hepatic) followed by cardiac puncture (circulating) into tubes containing 2% w/v aqueous K2 EDTA solution as per time points. Post blood sampling, the gastro intestine (GI) tissues were collected from the mice at the same time points. The GI tissue was dissected into different parts as duodenum, jejunum, ileum and colon. The separated tissues were washed by flushing with PBS via oral gavage needle to remove GI content. Post collection all the tissues were blotted, weighed and homogenized with PBS buffer (pH 7.4). The blood samples were immediately placed on ice and centrifuged within 30 min at 4° C. for 5 min at 8,000 rpm to obtain plasma. Plasma was transferred by pipettes to pre-labelled centrifuge tubes and immediately transferred to −80° C. until bioanalysis. Tissue samples were placed in pre-labelled container and all samples were kept in −80° C. until homogenized. The homogenate was stored immediately in −80° C. until bioanalysis was conducted. Study samples were thawed to room temperature and 50 μL of sample was aliquoted into pre-labeled vials. To these was added 400 μL of 100% acetonitrile containing an IS (100 ng/mL; warfarin, tolbutamide and loperamide). The vials were mixed well, vortexed for 5 min, followed by centrifugation for 5 min at 14000 rpm at 4° C. The supernatant was separated and same was injected on LC-MS/MS. Plasma and GI tissue levels of test compound were determined by LC-MS analysis using a standard curve in the text matrix. Individual concentration-time data were analyzed using Phoenix WinNonlin (Version 8.1) by the non-compartmental analysis (NCA) method.

[2] = biological target: T1, JAK2 (Homo sapiens, UniProt O60674); test: JAK2 enzyme activity assay (Thermo Fisher Selectscreen, Z-lyte); format: biochemical; conditions: read-out: JAK2 Inhibition IC50
T1 construct: purchased Thermo Fisher Scientific (SelectScreen service)
T1 sequence (O60674 whole entry): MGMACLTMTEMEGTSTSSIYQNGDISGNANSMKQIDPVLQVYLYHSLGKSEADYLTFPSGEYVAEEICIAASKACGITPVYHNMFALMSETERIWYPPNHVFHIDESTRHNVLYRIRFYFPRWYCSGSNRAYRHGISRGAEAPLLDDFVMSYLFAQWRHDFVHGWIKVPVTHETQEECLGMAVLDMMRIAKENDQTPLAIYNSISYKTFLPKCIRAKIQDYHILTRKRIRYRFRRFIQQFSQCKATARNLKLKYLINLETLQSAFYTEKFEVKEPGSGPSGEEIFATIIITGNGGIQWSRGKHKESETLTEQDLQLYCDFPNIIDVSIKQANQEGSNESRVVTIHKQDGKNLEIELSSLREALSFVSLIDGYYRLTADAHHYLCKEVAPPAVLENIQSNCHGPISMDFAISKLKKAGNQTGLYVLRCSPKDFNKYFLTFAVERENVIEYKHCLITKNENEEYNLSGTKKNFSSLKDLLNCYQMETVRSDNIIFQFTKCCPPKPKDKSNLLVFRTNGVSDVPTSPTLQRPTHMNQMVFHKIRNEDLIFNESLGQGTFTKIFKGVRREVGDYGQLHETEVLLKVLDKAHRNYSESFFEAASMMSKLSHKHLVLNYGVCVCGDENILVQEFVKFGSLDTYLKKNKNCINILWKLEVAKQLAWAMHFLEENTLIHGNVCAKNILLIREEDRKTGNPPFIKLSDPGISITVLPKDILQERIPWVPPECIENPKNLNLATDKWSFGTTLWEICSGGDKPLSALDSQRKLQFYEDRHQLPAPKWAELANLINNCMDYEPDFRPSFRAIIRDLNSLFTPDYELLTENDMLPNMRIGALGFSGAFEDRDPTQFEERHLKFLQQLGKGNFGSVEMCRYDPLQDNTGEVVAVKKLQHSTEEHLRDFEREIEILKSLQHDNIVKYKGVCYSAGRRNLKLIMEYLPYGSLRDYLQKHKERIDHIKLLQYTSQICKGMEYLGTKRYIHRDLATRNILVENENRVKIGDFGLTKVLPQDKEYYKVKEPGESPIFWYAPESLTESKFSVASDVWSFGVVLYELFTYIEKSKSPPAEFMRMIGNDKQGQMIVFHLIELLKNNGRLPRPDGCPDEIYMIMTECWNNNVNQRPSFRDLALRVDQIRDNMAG
Summary of the method: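 Z-lyte FRET kinase format: 0.12-0.5 ng JAK2 with 2 μM Tyr 06 peptide in HEPES pH 7.5, 10 mM MgCl2, 1 h reaction, then development reagent. Compounds were run as 11-point dose-response, 2% DMSO vehicle. IC50 came from 4-parameter logistic fit of emission ratio.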

[3] = tested on: IL-12 stimulated STAT4 phosphorylation on Tyr693 (JAK2/TYK2); test: JAK2/TYK2 cellular target modulation: IL-12 stimulated phospho-STAT4 in human PBMC; format: cell-based; conditions: IL-12 1.7 ng/ml, read-out: IL12-STAT4 IC50
Summary of the method: (§1)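 Thawed human PBMC (200,000/well) preincubated with compound 1 h at 37°C, then stimulated with IL-12 1.7 ng/ml for 25 min, IFNγ 10 ng/ml for 10 min, or IL-2 25 ng/ml for 5 min. Lysate phospho-STAT4 Tyr693 and phospho-STAT5 Tyr694 read by MSD; phospho-STAT1 Tyr701 by sandwich ELISA.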

[4] = tested on: IFNγ stimulated STAT1 phosphorylation on Tyr701 (JAK1/2); test: JAK1/2 cellular target modulation: IFNγ stimulated phospho-STAT1 in human PBMC; format: cell-based; conditions: IFNγ 10 ng/ml, read-out: Infγ-STAT1 IC50
Summary of the method: as §1

[5] = portal vein plasma, Portal plasma

Q: With `Cc1nnc(-c2cnc3[nH]ccc3c2N[C@H]2C[C@@H](NS(=O)(=O)c3cccc(C#N)c3)C2)s1` [Example 75, 3-cyano-N-((1s,3s)-3-((5-(5-methyl-1,3,4-thiadiazol-2-yl)-1H-pyrrolo[2,3-b]pyridin-4-yl)amino)cyclobutyl)benzenesulfonamide] as the compound, how does the AUC [1, 5] read?
A: The AUC was 247 ng·h/mL.

Q: What about the Tmax [1, 5] of the same compound?
A: Its Tmax is 2 h.

Q: And the AUC ([1]; Colon)?
A: Its AUC is 5950 ng·h/mL.

Q: What about the Tmax ([1]; Colon) of the same compound?
A: Its Tmax is 4 h.

Q: And the AUC ([1]; Duodenum)?
A: The AUC was 1510 ng·h/mL.

Q: What about the Tmax ([1]; Duodenum) of the same compound?
A: The Tmax was 0.5 h.

Q: What about the AUC ([1]; Ileum) of the same compound?
A: The AUC was 24500 ng·h/mL.

Q: And the Tmax ([1]; Ileum)?
A: Its Tmax is 2 h.

Q: And the AUC ([1]; Jejunum)?
A: The AUC was 13300 ng·h/mL.

Q: What about the Tmax ([1]; Jejunum) of the same compound?
A: Its Tmax is 0.5 h.

Q: What about the IC50 [2] of the same compound?
A: Its IC50 is at most 10 nM.

Q: What about the IC50 [3] of the same compound?
A: Its IC50 is 100 to 1000 nM.

Q: What about the IC50 [4] of the same compound?
A: Its IC50 is 100 to 1000 nM.
